≈ marks a conversion by molar mass, not a printed value. Like-named read-outs stand apart in the source and are kept apart here. Each block holds one compound with its values, some of them ahead of it.
Columns and labels:
[1] = tested on: E. multilocularis metacestodes; experiment: PGI-assay: drug-induced damage on in vitro cultured metacestodes (Pathogen Box screening cascade and EC50); format: cell-based, Echinococcus multilocularis; details: for activity in the screen at 10 μM (confirmed in triplicates, >20% relative PGI release): 5 and 12 days
[2] = tested on: E. multilocularis metacestodes; experiment: Vesicle viability assay by Alamar Blue (MIC); format: cell-based, Echinococcus multilocularis; details: Echinococcus multilocularis, 288 h; Alamar Blue vesicle viability assay, 12 days of incubation; read-out: E. multilocularis MIC
Procedure: The setup was the same as for PGI-assay EC50 calculations and it was performed in triplicates. […] Data was used to calculate the minimal inhibitory concentrations (MICs) of these compounds on metacestodes.

[3] = tested on: Reuber rat hepatoma (RH) cells; experiment: Cytotoxicity by Alamar Blue assay in rat hepatoma cells; format: cell-based; details: 120 h, Alamar Blue, 5 days
[4] = tested on: E. multilocularis metacestodes; experiment: Transmission electron microscopy of BPQ-treated metacestodes; format: cell-based, Echinococcus multilocularis
Procedure: The preparation of the samples for transmission electron microscopy (TEM) was done according to the protocol of [Hemphill and Croft (1997)]. In short, E. multilocularis metacestodes were distributed to 48-well-plates and incubated with DMSO or BPQ (30–0.04 μM) as described above. After an incubation period of 5 days, metacestodes were fixed in 2% glutaraldehyde in 0.1 M sodium cacodylate buffer; pH = 7.3 for 1 h. Next, the samples were stained for 2 h in a 2% osmium tetroxide solution cacodylate buffer, and subsequently pre-stained in a saturated uranyl acetate solution for 30 min. After washing the samples with water, they were dehydrated stepwise by washing in increasing concentrations of ethanol (30%, 50%, 70%, 90%, and three times 100%). The samples were then embedded in Epon 812 resin with three subsequent resin changes during 2 days and incubated at 65 °C overnight for polymerization. Sections for TEM (80 nm) were cut using an ultramicrotome (Reichert and Jung, Vienna, Austria), and were loaded onto formvar-carbon coated nickel grids (Plano GmbH, Marburg, Germany). The specimens were finally stained with uranyl acetate and lead citrate, and were viewed on a CM12 transmission electron microscope (Philips Electron Optics, Eindhoven, Netherlands) that operates at 80 kV.

[5] = tested on: mitochondrial respiration of E. multilocularis GL cells; experiment: Mitochondrial respiration (OCR) in permeabilized GL cells by Seahorse XFp analyzer; format: cell-based, Echinococcus multilocularis; details: 1 μM
[6] = tested on: E. multilocularis metacestodes; experiment: BPQ treatment of E. multilocularis infected mice; format: in vivo, Balb/c mice; details: for parasite burden compared to the control: p.o. in corn oil, 5 days per week, 4 weeks, BPQ 100 mg/kg, ABZ 200 mg/kg
Procedure: Balb/c mice, 6 weeks old, were purchased from Charles River Laboratories (Sulzheim, Germany) and used for in vivo experiments when they were 8 weeks old and weighted approximately 20 g. The mice were housed in a type 3 cage containing enrichment in the form of a cardboard house and paper and woodchip bedding with a maximum of seven mice per cage. […] Food and water was provided ad libitum. Experimentally infected mice were treated with BPQ to elucidate the efficacy of the drug in vivo. To infect mice, in vitro grown E. multilocularis metacestodes (isolate […]) were washed in PBS, were mechanically destroyed by pipetting and the resulting suspension was centrifuged for 5 min at 500 g. The parasite tissue was then taken up in an equal volume of PBS. Each mouse was subsequently infected intraperitoneally (i.p.) with 200 μl of this suspension. […] infected mice were randomly distributed into 3 treatment groups (8 animals per group) with 4 animals per cage. […] Treatments of mice started 2 weeks post-infection and lasted for 4 weeks, with consecutive treatment of mice for 5 days per week, followed by an interruption of treatment for 2 days for recovery. All treatments were administered by oral gavage in a volume of 50 μl, with ABZ and BPQ being suspended in corn oil. After four weeks, all mice were anesthetized with isoflurane and subsequently euthanized by CO2. The parasitic tissue from each mouse was completely resected and weighed. The mass of the resected parasitic tissue was used for statistical analyses of the experiment. […] The significance level was set to p < 0.05. Figures were prepared in R and Adobe Illustrator 2015.1.0.

[7] = BPQ levels in orally treated mice (literature); format: in vivo; details: extrapolation to 100 mg/kg
[8] = set-up: method as in Smith et al., 2018; details: mice, oral, single dose of 6 mg/kg; ref Smith et al., 2018; cited from earlier work
[9] = tested on: E. multilocularis metacestodes; experiment: PGI-assay under anaerobic/aerobic conditions; details: oxygen-free atmosphere, 5 days
[10] = tested on: human foreskin fibroblasts (HFF); experiment: Cytotoxicity by Alamar Blue assay in human foreskin fibroblasts; details: Homo sapiens, Fibroblast, 120 h
[11] = tested on: E. granulosus protoscoleces; set-up: method as in Bonilla et al., 2008; details: after 48 h; ref Bonilla et al., 2008; cited from earlier work
[12] = 1 µM, triplicates, 5 days of incubation
[13] = 1 µM, triplicates, 12 days of incubation

MIC [2]: 0.56 µM (≈ 0.183 µg/mL) | Cmax extrapolated (assuming linear correlation) [7]: 20000 nM
Compound: CC(C)(C)[C@H]1CC[C@H](CC2=C(O)C(=O)c3ccccc3C2=O)CC1 [MMV689480, Buparvaquone]
activity against metacestodes at 1 μM ([1]; triplicates): distinct in vitro activities | PGI release, % of Tx-100 control, average, 5d [1, 12]: 1.05% | PGI release, % of Tx-100 control, average, 12d [1, 13]: 52.04% | activity in the screen at 10 μM (confirmed in triplicates, >20% relative PGI release) [1]: active | cytotoxicity at 10 µM ([1]; Echinococcus multilocularis, 120 h, 10 µM, singlets, 5 days of incubation, read-out: PGI release, % of the Tx-100 control, 5d): 27.4% | EC50 ([1]; Echinococcus multilocularis, 120 h, PGI-assay, 5 days in vitro, read-out: E. multilocularis EC50): 2.87 µM | PGI release, % of Tx-100 control at 10 µM ([1]; Echinococcus multilocularis, 120 h, confirmatory screening at 10 µM in triplicates, 5 days of incubation, values as % of Tx-100 control, read-out: PGI release, % of Tx-100 control, average, 5d): 41.2% | cytotoxicity at 10 µM ([1]; Echinococcus multilocularis, 288 h, 10 µM, singlets, 12 days of incubation, read-out: PGI release, % of the Tx-100 control, 12d): 38.6% | PGI release, % of Tx-100 control at 10 µM ([1]; Echinococcus multilocularis, 288 h, confirmatory screening at 10 µM in triplicates, 12 days of incubation, values as % of Tx-100 control, read-out: PGI release, % of Tx-100 control, average, 12d): 63.7% | IC50 ([1]; Echinococcus multilocularis, read-out: IC50 against in vitro cultured E. multilocularis metacestodes): 2.87 µM | toxicity against E. multilocularis metacestodes compared with host cells (HFF, RH) ([1]; comparison of EC50 with IC50 on mammalian cells): specific toxicity | IC50 ([3]; confluent cells, read-out: RH confluent IC50): 17.4 µM | IC50 ([3]; preconfluent cells, read-out: RH preconfluent IC50): 8.47 µM | ultrastructural alterations (TEM) at 1 μM ([4]; 1 μM, 5 days): membrane stacks were observed, and the GL started to separate from the LL | ultrastructural alterations (TEM) at 3 μM ([4]; 3 μM, 5 days): metacestode integrity was seriously impaired | lowest concentration with ultrastructural damage (TEM) ([4]; 5 days of BPQ): 0.3 µM | oxygen consumption rate (OCR) after addition of drug ([5]; permeabilized GL cells fed with succinate): rapidly decreased | inhibition of mitochondrial electron transport chain complex ([5]; OCR restored by ascorbate/TMPD, not by succinate or glycerol 3-phosphate): selectively inhibits complex III | parasite burden compared to the control [6]: failed to reduce the parasite burden | parasite burden compared to the control ([6]; listed as BPQ): no significant difference | adverse effects due to treatment ([6]; whole course of treatment, 4 weeks p.o.): None of the mice showed signs of adverse effects | Cmax [8]: 1200 nM | damage on metacestodes (PGI-assay), anaerobic, 10 μM or lower ([9]; 10 μM or lower): did not induce damage | damage on metacestodes (PGI-assay), anaerobic, 30 μM ([9]; 30 μM): active | IC50 ([10]; read-out: HFF confluent IC50): 48.6 µM | IC50 ([10]; read-out: HFF preconfluent IC50): 5.99 µM

Compound: CC(=O)OCC1OC([S-])C(OC(C)=O)C(OC(C)=O)C1OC(C)=O.CCP(CC)CC.[Au+] (stereo not shown) [MMV688978, Auranofin, reference compound]
activity against metacestodes at 1 μM ([1]; triplicates): not at 1 μM | PGI release, % of Tx-100 control, average, 5d [1, 12]: -2.65% | PGI release, % of Tx-100 control, average, 12d [1, 13]: -1.30% | activity in the screen at 10 μM (confirmed in triplicates, >20% relative PGI release) [1]: active | PGI release, % of the Tx-100 control, 5d ([1]; 10 µM, singlets, 5 days of incubation): 84.86% | PGI release, % of the Tx-100 control, 12d ([1]; 10 µM, singlets, 12 days of incubation): 96.09% | PGI release, % of Tx-100 control, average, 5d ([1]; confirmatory screening at 10 µM in triplicates, 5 days of incubation, values as % of Tx-100 control): 47.33% | PGI release, % of Tx-100 control, average, 12d ([1]; confirmatory screening at 10 µM in triplicates, 12 days of incubation, values as % of Tx-100 control): 61.40% | concentration killing protoscoleces [11]: 2.5 µM

From article PMC6216040, “Repurposing of an old drug: In vitro and in vivo efficacies of buparvaquone against Echinococcus multilocularis” (International Journal for Parasitology: Drugs and Drug …, 2018)
